Reference: patent US5140009A (Tap Pharmaceuticals, Inc., priority 1990, dated 1992)
Square brackets hold non-standard residues; d marks the D form. Peptide text beside a SMILES is read from it. * marks the point of attachment. Propanoyl(3-(1-naphthyl)) = O=C(CCc1cccc2ccccc12)*; Propanoyl(3-indol-3-yl) = O=C(CCc1c[nH]c2ccccc12)*; Butyryl(4-indol-3-yl) = O=C(CCCc1c[nH]c2ccccc12)*; Propanoyl(3,3-Ph2) = O=C(CC(c1ccccc1)c1ccccc1)*; Acryloyl(3-(pyridin-3-yl)) = O=C(C=Cc1cccnc1)*; Propanoyl(3-(3-pyridyl)) = O=C(CCc1cccnc1)*; Acetyl(1-naphthyl) = O=C(Cc1cccc2ccccc12)*; Acetyl(2-naphthyl) = O=C(Cc1ccc2ccccc2c1)*; Acetyl(3-pyridyl) = O=C(Cc1cccnc1)*; 1Naphthoyl = O=C(c1cccc2ccccc12)*; dCha = N[C@H](CC1CCCCC1)C(=O)O; X14 = O=C(CCn1ccc2ccccc21)*; X1 = COc1ccccc1C=CC(=O)*; PhAc = O=C(Cc1ccccc1)*; X2 = O=C(C=Cc1ccccc1)*; Bn = c1ccc(C*)cc1

molecular target: T1, LHRH receptors (Rattus norvegicus, UniProt P30969); experiment: Receptor Binding (radioligand receptor binding assay); conditions: Receptor Binding pkI, table 3; rat pituitary membranes, radioiodinated [D-Leu^6 -des Gly^10 ]-LHRH ethyl amide 50 pM, 2 hours at 4° C.
T1 construct: Pituitary membranes containing LHRH receptors are prepared in batches from quick-frozen rat pituitaries; tissue Hilltop Labs; host or cells: rat pituitary membranes
T1 sequence (P30969 1-327): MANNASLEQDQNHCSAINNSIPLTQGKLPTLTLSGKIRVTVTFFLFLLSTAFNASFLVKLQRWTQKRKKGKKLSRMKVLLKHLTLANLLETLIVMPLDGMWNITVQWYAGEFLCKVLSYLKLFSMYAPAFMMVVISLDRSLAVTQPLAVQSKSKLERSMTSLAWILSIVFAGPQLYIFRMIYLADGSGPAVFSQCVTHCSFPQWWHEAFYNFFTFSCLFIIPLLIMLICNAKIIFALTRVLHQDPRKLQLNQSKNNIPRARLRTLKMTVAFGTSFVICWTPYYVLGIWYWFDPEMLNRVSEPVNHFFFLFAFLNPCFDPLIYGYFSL

| SMILES | Ki [nM] |
| --- | --- |
| CCNC(=O)[C@@H]1CCCN1C(=O)[C@H](CCCNC(=N)N)NC(=O)[C@H](CC(C)C)NC(=O)[C@@H](Cc1c[nH]c2ccccc12)NC(=O)[C@H](Cc1ccc(O)cc1)NC(=O)[C@H](CO)NC(=O)CC(c1ccccc1)c1ccccc1 [Compound 14, (4-9)[N-(3-Diphenylpropionyl)-Ser^4 -D-Trp^6 -Pro^9 -NHEt]LHRH] ({Propanoyl(3,3-Ph2)}-SY[dW]LRP-NHEt) | 15.8 |

same assay, conditions: table 3; rat pituitary membranes, radioiodinated [D-Leu^6 -des Gly^10 ]-LHRH ethyl amide 50 pM, 2 hours at 4° C.; read-out: Receptor Binding pkI (converted)

| SMILES | Ki [nM] |
| --- | --- |
| CCNC(=O)[C@@H]1CCCN1C(=O)[C@H](CCCNC(=N)N)NC(=O)[C@H](CC(C)C)NC(=O)[C@@H](Cc1c[nH]c2ccccc12)NC(=O)[C@H](Cc1ccc(O)cc1)NC(=O)[C@H](COCc1ccccc1)NC(=O)Cc1ccc2ccccc2c1 [Compound 12, (4-9)[N-(2-Naphthylacetyl)-Ser^4 (OBzl)-D-Trp^6 -Pro^9 -NHEt]LHRH] ({Acetyl(2-naphthyl)}-S(Bn)Y[dW]LRP-NHEt) | 1.23 |
| CCNC(=O)[C@@H]1CCCN1C(=O)[C@H](CCCNC(=N)N)NC(=O)[C@H](CC(C)C)NC(=O)[C@@H](Cc1c[nH]c2ccccc12)NC(=O)[C@H](Cc1ccc(O)cc1)NC(=O)[C@H](CO)NC(=O)C=Cc1ccccc1 [Compound 15, (4-9)[N-(cinnamoyl)-Ser^4 -D-Trp^6 -Pro^9 -NHEt] LHRH] (X2-SY[dW]LRP-NHEt) | 7.76 |
| CCNC(=O)[C@@H]1CCCN1C(=O)[C@H](CCCNC(=N)N)NC(=O)[C@H](CC(C)C)NC(=O)[C@@H](Cc1c[nH]c2ccccc12)NC(=O)[C@H](Cc1ccc(O)cc1)NC(=O)[C@H](CO)NC(=O)C=Cc1ccccc1OC [Compound 16, (4-9)[N-(ortho-Methoxycinnamoyl)-Ser^4 -D-Trp^6 -Pro^9 -NHEt]LHRH] (X1-SY[dW]LRP-NHEt) | 1.41 |
| CCNC(=O)[C@@H]1CCCN1C(=O)[C@H](CCCNC(=N)N)NC(=O)[C@H](CC(C)C)NC(=O)[C@@H](Cc1c[nH]c2ccccc12)NC(=O)[C@H](Cc1ccc(O)cc1)NC(=O)[C@H](CO)NC(=O)Cc1ccccc1 [Compound 17, (4-9)[N-(Phenylacetyl)-Ser^4 -D-Trp^6 -Pro^9-NHEt] LHRH] (PhAc-SY[dW]LRP-NHEt) | 6.61 |
| CCNC(=O)[C@@H]1CCCN1C(=O)[C@H](CCCN=C(N)N)NC(=O)[C@H](CC(C)C)NC(=O)[C@@H](Cc1c[nH]c2ccccc12)NC(=O)[C@H](Cc1ccc(O)cc1)NC(=O)[C@H](CO)NC(=O)CCc1c[nH]c2ccccc12 [Compound 24, (4-9)[N-(3-(3-Indole)propionyl)-Ser^4 -D-Trp^6 -Pro^9 -NHEt] LHRH] ({Propanoyl(3-indol-3-yl)}-SY[dW]LRP-NHEt) | 3.72 |
| CCNC(=O)[C@@H]1CCCN1C(=O)[C@H](CCCNC(=N)N)NC(=O)[C@H](CC(C)C)NC(=O)[C@@H](CC1CCCCC1)NC(=O)[C@H](Cc1ccc(O)cc1)NC(=O)[C@H](COCc1ccccc1)NC(=O)Cc1cccc2ccccc12 [Compound 33, (4-9)[N-(1-Naphthylacetyl)-Ser^4 (OBzl)-D-Cha^6 -Pro^9 -NHEt]LHRH] ({Acetyl(1-naphthyl)}-S(Bn)Y[dCha]LRP-NHEt) | 13.8 |
| CCNC(=O)[C@@H]1CCCN1C(=O)[C@H](CCCNC(=N)N)NC(=O)[C@H](CC(C)C)NC(=O)[C@@H](CC1CCCCC1)NC(=O)[C@H](Cc1ccc(O)cc1)NC(=O)[C@H](CO)NC(=O)CCn1ccc2ccccc21 [Compound 34, (4-9)[N-(3-(1-Indole)propionyl)-Ser^4 -D-Cha^6 -Pro^9 -NHEt]LHRH] (X14-SY[dCha]LRP-NHEt) | 41.7 |
| CCNC(=O)[C@@H]1CCCN1C(=O)[C@H](CCCNC(=N)N)NC(=O)[C@H](CC(C)C)NC(=O)[C@@H](CCCNC(=N)N)NC(=O)[C@H](Cc1ccc(O)cc1)NC(=O)[C@H](CO)NC(=O)CCc1c[nH]c2ccccc12 [Compound 35, (4-9)[N-(3-(3-Indole)propionyl)-Ser^4 -D-Arg^6 -Pro^9 -NHEt]LHRH] ({Propanoyl(3-indol-3-yl)}-SY[dR]LRP-NHEt) | 204 |
| CCNC(=O)[C@@H]1CCCN1C(=O)[C@H](CCCNC(=N)N)NC(=O)[C@H](CC(C)C)NC(=O)[C@@H](CC1CCCCC1)NC(=O)[C@H](Cc1ccc(O)cc1)NC(=O)[C@H](CO)NC(=O)CCCc1c[nH]c2ccccc12 [Compound 36, (4-9)[N-(4-(3-Indole)butyryl)-Ser^4 -D-Cha^6 -Pro^9 -NHEt]LHRH] ({Butyryl(4-indol-3-yl)}-SY[dCha]LRP-NHEt) | 17 |
| CCNC(=O)[C@@H]1CCCN1C(=O)[C@H](CCCNC(=N)N)NC(=O)[C@H](CC(C)C)NC(=O)[C@@H](CCCNC(=N)N)NC(=O)[C@H](Cc1ccc(O)cc1)NC(=O)[C@H](CO)NC(=O)Cc1cccc2ccccc12 [Compound 37, (4-9)[N-(1-Naphthylacetyl)-Ser^4 -D-Arg^6 -Pro^9 -NHEt] LHRH] ({Acetyl(1-naphthyl)}-SY[dR]LRP-NHEt) | 20.4 |
| CCNC(=O)[C@@H]1CCCN1C(=O)[C@H](CCCNC(=N)N)NC(=O)[C@H](CC(C)C)NC(=O)[C@@H](CCCNC(=N)N)NC(=O)[C@H](Cc1ccc(O)cc1)NC(=O)[C@H](COCc1ccccc1)NC(=O)Cc1cccc2ccccc12 [Compound 38, (4-9)[N-(1-Naphthylacetyl)-Ser^4 (OBzl)-D-Arg^6 -Pro^9 -NHEt]LHRH] ({Acetyl(1-naphthyl)}-S(Bn)Y[dR]LRP-NHEt) | 28.8 |
| CCNC(=O)[C@@H]1CCCN1C(=O)[C@H](CCCNC(=N)N)NC(=O)[C@H](CC(C)C)NC(=O)[C@@H](CCCNC(=N)N)NC(=O)[C@H](Cc1ccc(O)cc1)NC(=O)[C@H](CO)NC(=O)c1cccc2ccccc12 [Compound 39, (4-9)[N-(1-Naphthoyl)-Ser^4 -D Arg^6 -Pro^9 -NHEt] LHRH] (1Naphthoyl-SY[dR]LRP-NHEt) | 117 |
| CCNC(=O)[C@@H]1CCCN1C(=O)[C@H](CCCNC(=N)N)NC(=O)[C@H](CC(C)C)NC(=O)[C@@H](CC(C)C)NC(=O)[C@H](Cc1ccc(O)cc1)NC(=O)[C@H](CO)NC(=O)Cc1cccnc1 [Compound 40, (4-9)[N-(3-Pyridylacetyl)-Ser4-D-Leu^6 -Pro^9 -NHEt] LHRH] ({Acetyl(3-pyridyl)}-SY[dL]LRP-NHEt) | 4370 |
| CCNC(=O)[C@@H]1CCCN1C(=O)[C@H](CCCN=C(N)N)NC(=O)[C@H](CC(C)C)NC(=O)[C@@H](CC(C)C)NC(=O)[C@H](Cc1ccc(O)cc1)NC(=O)[C@H](CO)NC(=O)CCc1cccnc1 [Compound 41, (4-9)[N-(3-(3-Pyridyl)propionyl)-Ser^4 -D-Leu^6 -Pro^9 -NHEt]LHRH] ({Propanoyl(3-(3-pyridyl))}-SY[dL]LRP-NHEt) | 1740 |

Now from value to compound:

| Ki [nM] | SMILES |
| --- | --- |
| 0.295 | CCNC(=O)[C@@H]1CCCN1C(=O)[C@H](CCCNC(=N)N)NC(=O)[C@H](CC(C)C)NC(=O)[C@@H](Cc1c[nH]c2ccccc12)NC(=O)[C@H](Cc1ccc(O)cc1)NC(=O)[C@H](CO)NC(=O)C(Cc1cccc2ccccc12)NC(C)=O (single isomer, unassigned) [Compound 82, (3-9)[N-Ac-1-Nal^3 -D-Trp^6 -Pro^9 NHEt]LHRH] |
| 0.123 | CCNC(=O)[C@@H]1CCCN1C(=O)[C@H](CCCNC(=N)N)NC(=O)[C@H](CC(C)C)NC(=O)[C@@H](Cc1c[nH]c2ccccc12)NC(=O)[C@H](Cc1ccc(O)cc1)NC(=O)[C@H](CO)NC(=O)C(Cc1cccc2ccccc12)NC(C)=O (single isomer, unassigned) [Compound 83, (3-9) [N-Ac-1-Nal^3 -D-Trp^6 -Pro^9 NHEt]LHRH] |
| 0.275 | CCNC(=O)[C@@H]1CCCN1C(=O)[C@H](CCCNC(=N)N)NC(=O)[C@H](CC(C)C)NC(=O)[C@@H](Cc1c[nH]c2ccccc12)NC(=O)[C@H](Cc1ccc(O)cc1)NC(=O)[C@H](CO)NC(=O)[C@H](Cc1c[nH]c2ccccc12)NC(=O)C(CC(=O)N1CCOCC1)Cc1cccc2ccccc12 (single isomer, unassigned) [Compound 130] |
| 0.631 | CCNC(=O)[C@@H]1CCCN1C(=O)[C@H](CCCNC(=N)N)NC(=O)[C@H](CC(C)C)NC(=O)[C@@H](Cc1c[nH]c2ccccc12)NC(=O)[C@H](Cc1ccc(O)cc1)NC(=O)[C@H](CO)NC(=O)[C@H](Cc1c[nH]c2ccccc12)NC(=O)C(CC(=O)N1CCOCC1)Cc1cccc2ccccc12 (single isomer, unassigned) [Compound 131] |
| 646 | CCNC(=O)[C@@H]1CCCN1C(=O)[C@H](CCCNC(=N)N)NC(=O)[C@H](CC(C)C)NC(=O)[C@@H](Cc1c[nH]c2ccccc12)NC(=O)[C@H](Cc1ccc(O)cc1)NC(=O)[C@H](CO)NC(=O)C=Cc1cccnc1 [Compound 43, (4-9)[N-(3-(3-Pyridyl)acryloyl)-Ser^4 -D-Trp^6 -Pro^9 -NHEt]LHRH] ({Acryloyl(3-(pyridin-3-yl))}-SY[dW]LRP-NHEt) |
| 3.98 | CCNC(=O)[C@@H]1CCCN1C(=O)[C@H](CCCNC(=N)N)NC(=O)[C@H](CC(C)C)NC(=O)[C@@H](CCCNC(=N)N)NC(=O)[C@H](Cc1ccc(O)cc1)NC(=O)[C@H](CO)NC(=O)CCc1cccc2ccccc12 [Compound 44, (4-9)[N-(3-(1-Naphthyl)propionyl)-Ser^4 -D-Arg^6 -Pro^9 -NHEt]LHRH] ({Propanoyl(3-(1-naphthyl))}-SY[dR]LRP-NHEt) |
| 6.03 | CCNC(=O)[C@@H]1CCCN1C(=O)[C@H](CCCNC(=N)N)NC(=O)[C@H](CC(C)C)NC(=O)[C@@H](CCCNC(=N)N)NC(=O)[C@H](Cc1ccc(O)cc1)NC(=O)[C@H](COCc1ccccc1)NC(=O)CCc1cccc2ccccc12 [Compound 45, (4-9)[N-(3-(1-Naphthyl)propionyl)-Ser^4 (OBzl)-D-Arg^6 -Pro^9 -NHEt]LHRH] ({Propanoyl(3-(1-naphthyl))}-S(Bn)Y[dR]LRP-NHEt) |
